Data on 46 compounds can be found in patent publication US8399493B2, “Pyridinone derivatives and their use as positive allosteric modulators of mGluR2-receptors” (Janssen Pharmaceuticals, Inc., priority 2004, dated 2013).

Molecules are shown by their SMILES.

T1 sequence (P31421 19-872): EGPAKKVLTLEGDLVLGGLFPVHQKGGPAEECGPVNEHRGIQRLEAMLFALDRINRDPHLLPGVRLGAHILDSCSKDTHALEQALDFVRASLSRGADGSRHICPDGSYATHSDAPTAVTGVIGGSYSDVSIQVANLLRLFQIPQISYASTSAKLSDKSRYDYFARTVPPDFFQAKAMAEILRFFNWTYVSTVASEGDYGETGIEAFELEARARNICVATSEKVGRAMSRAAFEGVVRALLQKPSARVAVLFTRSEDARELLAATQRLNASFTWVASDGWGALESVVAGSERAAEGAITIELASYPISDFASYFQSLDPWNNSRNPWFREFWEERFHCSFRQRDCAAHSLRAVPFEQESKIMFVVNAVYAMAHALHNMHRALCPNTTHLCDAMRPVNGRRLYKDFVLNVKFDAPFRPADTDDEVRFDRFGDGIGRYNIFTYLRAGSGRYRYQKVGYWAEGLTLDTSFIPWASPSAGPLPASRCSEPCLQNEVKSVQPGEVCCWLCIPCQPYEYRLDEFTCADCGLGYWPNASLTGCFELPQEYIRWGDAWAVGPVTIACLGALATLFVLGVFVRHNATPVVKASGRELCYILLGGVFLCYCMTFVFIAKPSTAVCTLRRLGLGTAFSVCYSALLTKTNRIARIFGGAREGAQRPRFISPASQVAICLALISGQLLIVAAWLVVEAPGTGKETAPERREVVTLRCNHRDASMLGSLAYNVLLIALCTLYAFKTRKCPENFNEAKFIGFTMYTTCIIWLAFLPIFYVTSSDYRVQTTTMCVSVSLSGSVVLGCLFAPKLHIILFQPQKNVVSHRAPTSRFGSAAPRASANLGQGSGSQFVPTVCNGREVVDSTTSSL

The first data set concerns the target T1, native rat mGluR2 (Rattus norvegicus, UniProt P31421).
T1 construct: from tissue; host or cells: rat brain cortex membranes (Sprague-Dawley rats, Charles River Laboratories)
Nature of the data set: [35S]GTPγS binding assay using cortical rat brain membranes. Type of data set: biochemical. As to conditions: selective mGluR2 agonist such as LY379268; rat cortical membranes; 3 or 10 μM of positive allosteric modulator. The text has this: The [^35S]GTPγS binding is a functional membrane-based assay used to study G-protein coupled receptor (GPCR) function. This method is using a binding assay to assess the initial step in receptor-mediated G protein activation in membranes prepared from cells expressing recombinant GPCR or using membranes from discrete area of the rat brain. In brief, the assay is measuring the activation of G proteins by catalyzing the exchange of guanosine 5′-diphosphate (GDP) by guanosine 5′-triphosphate (GTP) at the α subunit. The GTP-bounded G proteins dissociate into two subunits, Gα-GTP and Gβγ, which in turn regulate intracellular enzymes and ion channels. GTP is rapidly hydrolysed by the Gα-subunit (GTPases) and the G protein is deactivated and ready for new GTP exchange cycle (Harper (1998) Curr Protoc Pharmacol 2.6.1-10, John Wiley & Sons, Inc.). [^35S]GTPγS, a non-hydrolyzed analogue of GTP, is used for this purpose.
This method is widely used to study receptor activation of G protein in membranes prepared from rat brain tissue, including mGluR2 receptors (Schaffhauser et al 2003, Pinkerton et al, 2004). mGluR2 receptors are expressed in the rat brain cortex (Mutel et al (1998) J. Neurochem. 71:2558-64; Schaffhauser et al (1998) Mol. Pharmacol. 53:228-33) and are coupled to Gαi-protein, a preferential coupling for this method.
[^35S]GTPγS binding assay using cortical rat brain membranes preparation was used and adapted from Schaffhauser et al ((2003) Mol. Pharmacol. 4:798-810) for the detection of the positive allosteric modulator properties of the compounds of this invention on native rat mGluR2. In order to eliminate the possible interference with group III Gαi-protein coupled mGluRs (mGluR4, mGluR7, mGluR8; mGluR6 is not expressed in the cortex (Laurie et al (1997) Neuropharmacol. 36:145-52)), the potentiation of the response to a selective mGluR2 agonist, such as DCG-IV (Cartmell et al. (1998) Br. J. Pharmacol. 123(3):497-504) or LY379268 (Monn et al. (1999) J. Med. Chem 42:1027-40), by compounds described in the present invention was performed.
Cortices were dissected out from brains of 200-300 g Sprague-Dawley rats (Charles River Laboratories, L'Arbresle, France). Tissues were homogenized in 6 volumes (vol/wt) of 10% sucrose at 4° C. using a glass-teflon homogenizer. The homogenate was centrifuged at 1250 g for 10 min, and the supernatant was centrifuged at 40,000 g for 20 min (4° C.). The pellet was resuspended in 25 ml water using a Polytron disrupter (Kinematica AG, Luzern, Switzerland) and centrifuged for 10 min at 3000 g. (4° C.). The supernatant was centrifuged at 40,000 g for 20 min (4° C.). The supernatant was discarded and the pellet washed twice by resuspension in 10 volumes 5 mM HEPES-KOH, pH 7.4. The homogenate was frozen and thawed twice and centrifuged at 40,000 g for 20 min. The final pellet was resuspended in 5 mM HEPES-KOH, pH 7.4 and stored at −80° C. before its use. Protein concentration was determined by the Bradford method (Bio-Rad protein assay, Reinach, Switzerland) with bovine serum albumin as standard.
Measurement of mGluR2 positive allosteric modulators properties in rat cortical membranes was performed as follows: rat cortical membrane (1.5 μg) were incubated in 96-well microplates for 15 min at 30° C. in assay buffer (50 mM HEPES pH 7.4, 100 mM NaCl, 5 mM MgCl2, 10 μM GDP, 10 μg/ml saponin, EGTA 0.2 mM) with increasing concentrations of positive allosteric modulator (from 1 nM to 10 μM) and a minimal concentration of DCG-IV or LY379268, a selective mGluR2 agonist, that has been determined in previous experiments and that corresponds to the EC20, a concentration that gives 20% of the maximal response of the agonist, and is in accordance to published data (Pin et al. (1999) Eur. J. Pharmacol. 375:277-294). […]
`COCCc1cc(=O)n(Cc2ccc(Cl)cc2)cc1-c1ccc(OC)cc1` [9-17, 1-(4-Chlorobenzyl)-4-(2-methoxyethyl)-5-(4-methoxyphenyl)pyridin-2(1H)-one]: the “Activity: left-ward shift of agonist mGluR2 concentration-response curve” value (shortened to “Activity: left-ward shift”) was “+ (left-ward shift of agonist mGluR2 concentration-response curve [<2])”.

For `O=c1ccc(COc2ccccc2)cn1Cc1ccc(C(F)(F)F)nc1` [16-07], the “Activity: left-ward shift” value is “++ (left-ward shift of agonist mGluR2 concentration-response curve [2- to 3.5-fold])”. `Cc1ccc(-c2ccc(=O)n(Cc3ccc(Cl)cc3)c2)nc1` [2-61]: the “Activity: left-ward shift” value is “++ (left-ward shift of agonist mGluR2 concentration-response curve [2- to 3.5-fold])”.

On to `COc1ccc(-c2cn(Cc3ccc(Cl)cc3F)c(=O)cc2OC)cc1` [9-18, 1-(4-Chloro-2-fluorobenzyl)-4-methoxy-5-(4-methoxyphenyl)pyridin-2(1H)-one], for which the “Activity: left-ward shift” value was “+ (left-ward shift of agonist mGluR2 concentration-response curve [<2])”. On to `COc1cccc(Cc2ccc(=O)n(Cc3ccc(Cl)cc3)c2)c1` [3-02, 5-(3-Methoxybenzyl)-1-(4-chlorobenzyl)pyridin-2(1H)-one], for which the “Activity: left-ward shift” value is “++ (left-ward shift of agonist mGluR2 concentration-response curve [2- to 3.5-fold])”.

Test system in another data set: not given
Experiment: not given
Conditions: not given
As for `O=c1ccc(COc2ccccc2)cn1Cc1ccc(C(F)(F)F)nc1` [16-07], the melting point lay in the range of 119 to 121 °C. As for `Cc1ccc(-c2ccc(=O)n(Cc3ccc(Cl)cc3)c2)nc1` [2-61], the melting point was determined as 135 °C. With `CC(=O)c1ccc(-c2ccc(=O)n(Cc3ccc(F)c(F)c3)c2)cc1` [6-12], the melting point was found to be 142 °C. `O=c1ccc(-c2ccc3ccccc3c2)cn1Cc1ccccc1` [1-32] had a melting point of 114 °C.

As to `CN(C)c1ccc(-c2ccc(=O)n(Cc3ccc(Cl)cc3)c2)cc1` [2-48], the melting point is 155 °C. On the same count and under the same terms, then `COc1ccc(-c2ccc(=O)n(Cc3noc(-c4ccccc4)n3)c2)cc1` [4-41], with 104 °C; and `O=c1ccc(-c2cnc3ccccc3c2)cn1Cc1ccc(Cl)cc1` [2-70], with 165 °C; and `O=c1ccc(-c2ccc(S(=O)(=O)N3CCOCC3)cc2)cn1Cc1ccc(Cl)cc1F` [6-74], with 141 °C.

For `O=c1ccc(-c2ccc3sccc3c2)cn1Cc1ccc(Cl)cc1F` [6-69, 1-(4-Chloro-2-fluorobenzyl)-5-(benzo[b]thiophen-5-yl)pyridin-2(1H)-one], the melting point was determined as 110 °C. On the same count and under the same terms, then `O=c1ccc(COc2ccccc2)cn1Cc1ccc(Cl)cc1F` [16-04], with 86 °C; and `CN(C)C(=O)c1ccc(-c2ccc(=O)n(Cc3ccc(Cl)cc3)c2)cc1` [2-43], with 176 °C. Turning to `COCCOc1ccc(-c2ccc(=O)n(Cc3ccc(Cl)cc3F)c2)cc1` [6-36], the melting point worked out at 90 °C.

In turn, `CC(C)(C)c1ccc(-c2ccc(=O)n(Cc3ccccc3)c2)cc1` [1-05] returned a melting point of 145 °C.

On to `COc1ccc(-c2ccc(=O)n(Cc3cccc(C#N)c3)c2)cc1` [4-29], for which the melting point stood at 165 °C. In the case of `COc1ccc(-c2ccc(=O)n(Cc3ccc(Cl)cc3F)c2)cc1OC` [6-31], the melting point stood at 141 °C. Same read-out and setting: then `CNC(=O)CCc1ccc(-c2ccc(=O)n(Cc3ccc(Cl)cc3)c2)cc1` [2-46], with 197 °C; and `CC(C)Cc1ccc(-c2ccc(=O)n(Cc3ccc(Cl)cc3)c2)cc1` [2-04], with 115 °C; and `O=c1ccc(-c2ccccc2)cn1Cc1nc2ccccc2s1` [6-81], with 149 °C.

For `O=c1ccc(CNc2ccccc2)cn1Cc1ccc(Cl)cc1` [16-01], the melting point stood at 142 °C. Still for that read-out and setting: next, `COc1ccc(-c2ccc(=O)n(Cc3ccc(C(F)(F)F)cc3)c2)cc1` [4-07]: 131 to 132 °C; `COCCOCc1ccc(-c2ccc(=O)n(Cc3ccc(Cl)cc3)c2)cc1` [2-28]: 79 °C.

The compound `CS(=O)(=O)NCCCOc1ccc(-c2ccc(=O)n(Cc3ccc(Cl)cc3F)c2)cc1` [6-71] registered a melting point of 157 °C.

Compound `Cc1ccc(-c2ccc(=O)n(Cc3ccc(Cl)cc3)c2)cc1` [2-03] displayed a melting point of 126 to 128 °C.

`O=c1cc(OCCc2ccccc2)ccn1Cc1cccc(F)c1` [7-03, 1-(3-Fluorobenzyl)-4-phenethoxypyridin-2(1H)-one] had a melting point of 93 °C.

With `COc1ccc(-c2ccc(=O)n(Cc3ccc([N+](=O)[O-])cc3)c2)cc1` [4-33], the melting point stood at 95 °C. Still for that read-out and setting: then `O=c1ccc(COc2ccccc2)cn1Cc1ccc(F)c(F)c1` [16-03, 1-(3,4-Difluorobenzyl)-5-(phenoxymethyl)pyridin-2(1H)-one], with 89 °C.

As to `O=c1ccc(-c2ccc(O)cc2)cn1Cc1ccc(Cl)cc1` [2-13], the melting point came out at 202 °C. Same read-out and setting: next, `O=C(O)Cc1ccc(-c2ccc(=O)n(Cc3ccc(Cl)cc3)c2)cc1` [2-31]: 180 °C; `O=c1ccc(-c2ccc(N3CCOCC3)cc2)cn1Cc1ccc(Cl)cc1` [2-41]: 126 °C.

The compound `COC(=O)Oc1ccc(-c2ccc(=O)n(Cc3ccc(Cl)cc3F)c2)cc1` [6-39, 4-(1-(4-Chloro-2-fluorobenzyl)-6-oxo-1,6-dihydropyridin-3-yl)phenyl methyl carbonate] gave a melting point of 124 °C. The same measure, in the same setting: then `COc1ccc(-c2ccc(=O)n(Cc3cccc(F)c3F)c2)cc1` [4-13], with 71 °C. With `O=c1ccc(C2CCCCC2)cn1Cc1ccc(Cl)cc1` [2-01, 1-(4-Chlorobenzyl)-5-cyclohexylpyridin-2(1H)-one], the melting point worked out at 72 °C. The compound `COc1ccc(-c2ccc(=O)n(Cc3ccc(C(F)(F)F)o3)c2)cc1` [4-39] returned a melting point of 120 °C.

In turn, `COc1cccc(C(O)c2ccc(=O)n(Cc3ccc(Cl)cc3)c2)c1` (stereo not drawn) [3-10, 1-(4-Chlorobenzyl)-5-(hydroxy(3-methoxyphenyl)methyl)pyridin-2(1H)-one] yielded a melting point of 120 °C.

Compound `CNC(=O)COc1ccc(-c2ccc(=O)n(Cc3ccc(Cl)cc3F)c2)cc1` [6-52] had a melting point of 162 °C.

As for `CS(=O)(=O)NCCOc1ccc(-c2ccc(=O)n(Cc3ccc(Cl)cc3F)c2)cc1` [6-70], the melting point was found to be 139 °C.

Compound `O=c1ccc(-c2ccc3nccnc3c2)cn1Cc1ccc(Cl)cc1` [2-72] registered a melting point of 120 °C. The compound `O=c1ccc(-c2ccc3c(c2)CCO3)cn1Cc1ccc(F)c(F)c1` [6-17] showed a melting point of 99 °C. The same measure, in the same setting: then `O=c1ccc(-c2cccc(Cl)c2)cn1Cc1ccccc1` [1-10], with 120 °C; and `CN(C)C(=O)CCc1ccc(-c2ccc(=O)n(Cc3ccc(Cl)cc3)c2)cc1` [2-47], with 104 °C. The same measure, in the same setting: next, `O=c1ccc(-c2ccc(Cl)nc2)cn1Cc1ccc(Cl)cc1` [2-63]: 169 °C; `CCc1ccc(Cn2cc(-c3ccc(OC)cc3)ccc2=O)cn1` [4-45, 1-((6-Ethylpyridin-3-yl)methyl)-5-(4-methoxyphenyl)pyridin-2(1H)-one]: 130 °C; `CCSc1ccc(-c2ccc(=O)n(Cc3ccc(Cl)cc3)c2)cc1` [2-53]: 109 °C.
